No end group written: not given here.
Columns and labels:
DR5L ECD [1] = biological target: T1, DR5L ECD (Homo sapiens, UniProt O14763); experiment: Fluorescence quenching of AlexaFluor647-DR5L ECD; type: binding
T1 construct: Gp67 (glycoprotein) signal peptide (N); made in house; host or cells: SF21 insect cells (baculovirus, Bac-to-Bac)
Description: The pFastBac HTB constructs were recombined into bacmid DNA using the Bac-to-Bac baculovirus expression system according to manufacturer’s protocols (Life Technologies).
Recombinant DR5 and TNFR1 ECD were labeled with AlexaFluor647 NHS Ester (Succinimidyl Ester) (Life Technologies # A37573) in a 3:1 dye:protein molar ratio in 30 mM HEPES pH 7.2, 150 mM NaCl, 1% DMF overnight at 4°C protected from light. The labeled proteins were re-loaded onto a SuperDex200 10/300 GL column to remove the excess dye, yielding labeling efficiencies of 59% and 49% for DR5 ECD and TNFR1 ECD, respectively. […]
To set up reactions, the unlabeled peptide titration (10 μl each) was made from a two-fold dilution series of the highest peptide concentration assayed. […] Samples were incubated for 30 min at RT protected from light before measuring fluorescence.
Samples were then loaded by capillary action onto premium capillaries (Nanotemper Technologies, cat. #MO-K025). Fluorescence was measured on a Monolith NT.115 Instrument (NanoTemper Technologies, Germany) using the capillary scan function at 25°C.
The half-maximum binding constant (K1/2) and Hill coefficient were determined by fitting the data points on Prism 6.0 to the model equation: Y = Bmax*X^h/(K1/2^h + X^h), where Y is the % quenching, X is the concentration of peptide, Bmax is the maximum % quenching, and h is the Hill slope.

DR5L ECD [2] = biological target: T1, DR5L ECD; experiment: Size exclusion chromatography of DR5 ECD and peptide complex; type: biochemical; details: 25 μM DR5L ECD; 100 μM fluorescein-conjugated peptide; overnight 4°C
Description: The specified concentration of protein and peptide were incubated overnight at 4°C. The following day, 200 ul of each sample was loaded onto a SuperDex200 10/300 GL column equilibrated with 30 mM HEPES pH 7.2, 150 mM NaCl at a flow rate of 0.5 ml/min. Fractions were collected in 1 ml aliquots.
For subsequent analysis of each fraction by SDS-PAGE, 1 ml fractions were concentrated to 50 μl using a 3 kDa MW cutoff and loaded onto a gel. The fluorescein-labeled peptide was visualized using the fluorescence detection mode on a Typhoon 9400 Variable Mode Imager (GE Healthcare). Protein was visualized by staining with Coomassie.

T1 sequence (O14763 72-213): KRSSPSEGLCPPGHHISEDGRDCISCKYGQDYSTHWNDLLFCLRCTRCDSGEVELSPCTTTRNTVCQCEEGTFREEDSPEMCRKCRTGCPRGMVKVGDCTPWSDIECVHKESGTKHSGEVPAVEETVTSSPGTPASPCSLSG

Sequence	Kd (DR5L ECD [1]; AlexaFluor647-DR5L ECD 200 nM, 20 mM HEPES pH 7.2, 100 mM KOAc, 0.1% Tween-20, 30 min RT, read at 25°C, N = 3, ± SD, read-out: K1/2 (half-maximum binding constant, apparent binding affinity)) [µM]	fluorescence quenching of AlexaFluor647-DR5L ECD (DR5L ECD [1]; increasing peptide, 200 nM ECD, N = 3)	co-elution / oligomerization of DR5 ECD by size exclusion (DR5L ECD [2])
FTWRYQPEGGRDAISIFHYA [MPZ-ecto]	109 ± 11		
FTWREQPEGGRDAISIFHEA [MPZ-ecto^Tyr→Glu]		quenching was not observed	did not co-migrate with or induce the oligomerization of DR5 ECD
